Source: patent US5238838A (Degussa Aktiengesellschaft, priority 1991, dated 1993)
Several values for one entry are separate records, joined by “and”; a condition that tells them apart may be missing. Equal values may be shown once. Entries after “also recorded” stand apart in the source; their conditions may differ. Where a name gives a salt, the structure may show the parent alone. Read-outs that look alike come from different tables or passages of the source. Where a SMILES comes first, the peptide text is derived from it.

Key:
[1] = system: L-carnitine amidase; assay: Substrate spectrum of L-carnitine amidase; format: biochemical, strain DSM 6230; conditions: substrate 50 mM; 30° C.; 100 mM potassium phosphate buffer pH 8
Experimental: The enzyme test was carried out at 30° C. in 100 mM potassium phosphate buffer pH 8. The substrate concentration was 50 mM.

[2] = system: L-carnitine amidase; assay: Test for the induction of L-carnitine amidase; format: cell-based, strain DSM 6230; conditions: for Induction of L-carnitine amidase (in words): strain DSM 6230; for Activity (mU/mg) / Activity (mU/ml): 5 g/l of the substance as inductor, 36 h, L-carnitine amide as substrate
Experimental: (§1) In this test, various substances were examined for their induction action. At the same time, the growth on these compounds was followed. The medium used was a minimum medium with 1.0 g/l instead of 0.5 g/l yeast extract, to which 5 g/l of the substance to be tested were added in each instance. The culture without inductor contained 5 g/l yeast extract. All tests were carried out with 20 ml shaking cultures which were incubated 36 h at 30° C. and 120 rpms in a rotating [round]shaking machine. These cultures were inoculated with 1% of an initial culture of strain DSM 6230. L-carnitine amide was used as substrate for the enzyme test.
(§2) At the same time, the growth of the bacteria was followed in these carnitine amide concentrations. The culture conditions corresponded to those in example 3.

[3] = system: L-carnitine amidase;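 also: additives put into the enzyme mixture before substrate, reaction then initiated by substrate addition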
Experimental: In order to test the influence of various additives on the enzyme activity, they were added to the test batches without substrate in a final concentration of 1 mM and 10 mM in each instance. The reaction batches were first incubated for 45 min. at 30° C. before the reaction was started by adding substrate solution.

[4] = system: strain DSM 6230; assay: Growth of strain DSM 6230 on the test substances (OD660); format: cell-based; conditions: for OD660: 5 g/l of the substance in minimum medium with 1.0 g/l yeast extract, 36 h, 30° C.
Experimental: 1367 strains were isolated during the screening program. These strains were incubated in 100 ml Erlenmeyer flasks containing 20 ml of the particular enrichment medium in a rotary agitator at 30° C. and 120 rpms. The optical density at 660 nm was taken as an indication for the cell growth.
as §1, §2

[5] = additive 1 mM, 45 min. preincubation at 30° C.
[6] = additive 10 mM, 45 min. preincubation at 30° C.

Row | Structure (SMILES) | Rel. activity (%) [1] | Enzyme activity (%) [3, 5] | Enzyme activity (%) [3, 6] | also measured
1 | N=C(N)NCCC[C@H](N)C(N)=O [L-Arg-NH2] | 0% | – | – | –
2 | NC(=O)C[C@H](N)C(N)=O [L-Asn-NH2] | 0% | – | – | –
3 | NC(=O)[C@H](Cc1ccccc1)NC(=O)[C@@H](N)CC(=O)O [L-Asp-L-Phe-NH2] (H-Asp-Phe-NH2) | 0% | – | – | –
4 | NC(=O)[C@@H](N)Cc1c[nH]cn1 [L-His-NH2] | 0% | – | – | –
5 | CC[C@H](C)[C@H](N)C(N)=O [L-Ile-NH2] | 0% | – | – | –
6 | CSCC[C@H](N)C(N)=O [L-Met-NH2] | 0% | – | – | –
7 | NC(=O)[C@@H](N)CO [L-Ser-NH2] | 0% | – | – | –
8 | NC(=O)[C@@H](N)Cc1c[nH]c2ccccc12 [L-Trp-NH2] | 0% | – | – | –
9 | NC(=O)CNC(=O)[C@@H](N)Cc1ccc(O)cc1 [L-Tyr-Gly-NH2] | 0% | – | – | –
10 | NC(=O)[C@@H](N)Cc1ccc(O)cc1 [L-Tyr-NH2] | 0% | – | – | –
11 | CC(C)[C@H](N)C(=O)N[C@@H](Cc1ccccc1)C(N)=O [L-Val-L-Phe-NH2] (H-Val-Phe-NH2) | 0% | – | – | –
12 | C[N+](C)(C)C[C@H](O)CC(=O)[O-] [L-carnitine, 3-hydroxy-4-trimethylaminobutyrate] | – | – | – | Induction of L-carnitine amidase (in words) [2]: induced; also recorded: Inductors
13 | CC(C)CC(N)C(N)=O (stereo not shown) [Leu-NH2] | 0% | – | – | –
14 | [Cl-].[Cl-].[Mg+2] [MgCl2] | – | 96% | 88% | –
15 | [Cl][Mn][Cl] [MnCl2] | – | 89% | 76% | Reduction of the enzyme activity (in words) ([3]; concentration of 10 mM): reduction of the enzyme activity
16 | Cc1ccc(S(=O)(=O)N[C@@H](CCCCN)C(=O)CCl)cc1 [Na-tosyl-L-lysyl-chloromethane hydrochloride] | – | 84% | 73% | Reduction of the enzyme activity (in words) ([3]; concentration of 10 mM): reduction of the enzyme activity
17 | [F-].[Na+] [NaF] | – | 88% | 78% | Reduction of the enzyme activity (in words) ([3]; concentration of 10 mM): reduction of the enzyme activity
18 | [N-]=[N+]=[N-].[Na+] [NaN3] | – | 85% | 82% | –
19 | CN(C)C(=O)Oc1cccc([N+](C)(C)C)c1 [Neostigmine bromide] | – | 100% | 94% | –
20 | [Cl][Ni][Cl] [NiCl2] | – | 80% | 79% | –
21 | NC(=O)c1cccnc1 [Nicotinamide] | – | – | – | OD660 [4]: 0.7; Activity (mU/mg) [2]: 28 mU/mg; Activity (mU/ml) [2]: 55 mU/ml
22 | Cl.N=C(N)c1ccc(N)cc1 [Para-amino benzamidine hydrochloride] | – | 88% | 99% | –
23 | O=C(O)c1cc[c]([Hg][OH])cc1 [Para-hydroxymercuribenzoate] | – | 51% | – | –
24 | c1cnc2c(c1)ccc1cccnc12 [Phenanthroline] | – | 89% | 82% | –
25 | O=S(=O)(F)Cc1ccccc1 [Phenylmethane sulfonylfluoride (PMSF), Phenylmethane sulfonylfluoride] | – | 23% | 2% | –
26 | N[C@@H](CCC(=O)N[C@@H](CS)C(=O)NCC(=O)O)C(=O)O [Red. glutathione] | – | – | – | Enzyme activity (%) [3]: 97% and 92%; Reduction of the enzyme activity (in words) [3]: reduction of the enzyme activity
27 | O=C(O)CN(CCN(CC(=O)O)CC(=O)O)CC(=O)O [Titriplex III (EDTA)] | – | – | – | Enzyme activity (%) [3]: 93% and 73%; Reduction of the enzyme activity (in words) [3]: reduction of the enzyme activity
28 | [Cl-].[Cl-].[Zn+2] [ZnCl2] | – | 6% | – | –
29 | C[N+](C)(C)CCCC(=O)[O-] [butyrobetaine, γ-butyrobetaine] | – | – | – | OD660 [4]: 0.7; Growth of the strain on the substance (in words) ([4]; strain DSM 6230): can not be metabolized or are metabolized very poorly; Activity (mU/mg) [2]: 566 mU/mg; Activity (mU/ml) [2]: 963 mU/ml; Induction of L-carnitine amidase (in words) [2]: induced; also recorded: Inductors; also recorded: induce the enzyme
30 | CC(C)CC(=O)C(=O)O [α-ketoisocaproic acid] | – | 92% | 90% | –
